Reference: patent US20120016014A1, “BENZOTHIOPHENE CARBOXAMIDE COMPOUNDS, COMPOSITION AND APPLICATIONS THEREOF” (INDIAN INSTITUTE OF SCIENCE, priority 2010, published 2012)
“And” between values parts separate entries of the source, which are not always exact repeats. Equal values may be shown once. Read-outs that look alike come from different tables or passages of the source.

What was measured:
[1] = tested on: blood-stage P. berghei ANKA; assay: Experimental cerebral malaria in C57BL/6 mice; type: in vivo; conditions: for Relative efficacy in the route of administration study: 5 mg/kg body weight, 6 days treatment; for Mean Survival Days (Observed for 25 days): 5 mg/kg body weight daily for six days, C57BL/6 mice
Description: C57BL/6 mice were infected with blood-stage P. berghei ANKA as discussed in the experimental section. After 24 hours of infection mice were treated intravenously with various doses of inhibitors. It was observed that all control mice developed hypothermia by day 2, ataxia and convulsions by day 3 and died by day 6, whereas inhibitor treated groups had considerably higher longevity (11-24 days). Though each group of mice developed hypothermia by day 4, convulsions and ataxia development were delayed in case of treated mice. […] The mice treated with 2.5 mg/kg body weight survived for 18 days. Even at or below 1 mg/kg body weight of inhibitor dose, the mice survived for 11 days, but paralysis and ataxia development occurred on Day 7.
[…]. The mice were treated for 6 days. […]. Chloroquine was used as the control drug. […].
Therefore, compounds 10 and 11 were also administered at 5 mg/Kg body weight. The compounds were administered through intraperitoneal, peroral, subcutaneous and intravenous routes. Compound 10 and 11 were administered once daily for 6 days. […]. The mean survival days for this treatment group was 16 (FIG. 12c and Table III). […]. Chloroquine was used as the control drug.

purified PfENR [2] = target: T1, purified PfENR (Plasmodium falciparum, UniProt Q9BH77); assay: PfENR inhibition, standard enzyme assay; type: biochemical
T1 sequence (Q9BH77 22-432): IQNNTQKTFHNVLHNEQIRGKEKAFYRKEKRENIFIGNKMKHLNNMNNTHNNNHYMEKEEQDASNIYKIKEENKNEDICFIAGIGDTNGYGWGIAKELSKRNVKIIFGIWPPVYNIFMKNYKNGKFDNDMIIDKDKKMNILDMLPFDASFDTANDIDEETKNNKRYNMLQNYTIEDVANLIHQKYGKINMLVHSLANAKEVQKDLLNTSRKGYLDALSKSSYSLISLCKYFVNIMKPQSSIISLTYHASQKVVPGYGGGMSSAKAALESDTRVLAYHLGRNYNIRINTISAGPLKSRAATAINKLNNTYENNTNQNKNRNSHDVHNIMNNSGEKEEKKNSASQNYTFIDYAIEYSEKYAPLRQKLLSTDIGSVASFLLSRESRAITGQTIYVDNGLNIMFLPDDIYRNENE
Description: (§1) PfENR activity was determined using standard assay described earlier.

[3] = tested on: Plasmodium falciparum 3D7; assay: In vitro inhibition of P. falciparum 3D7 blood-stage parasites; type: cell-based; conditions: for IC50: read-out: P. falciparum (IC50 μM); for Stage of parasite growth arrest / Parasites observed to be dead: 2.5 μM; for Stage of parasite growth arrest: added at ring stage, P. falciparum 3D7; for Parasites observed to be dead: synchronised ring stage culture of P. falciparum 3D7
Description: Benzothiophene carboxamide derivatives of the present invention were checked for their anti-parasitic activity against 3D7 (chloroquine sensitive strain) in an in vitro culture. […] To find out parasite stage where these compounds act, synchronised ring stage culture of P. falciparum was treated with 2.5 μM concentration of compounds 6 and 7. […] When compounds 6 and 7 were added at the trophozoite stage the cells could not proceed to the schizont stage indicating the growth inhibition occurs at trophozoite stage.
Synchronised culture of P. falciparum 3D7 was treated with 2.5 μM compound 10 and 11 at the ring stage.

purified PfENR [4] = target: T1, purified PfENR; assay: PfENR inhibition kinetics, cofactor potency and progress curve analysis; type: biochemical
Description: as §1
The accumulation of product further decreased when compound 6 was preincubated with the enzyme (curve c). On addition of NAD+ to this reaction the rate of product accumulation further decreased (curve d).
Progress curves for inhibition by varying concentrations of compounds 6 and 7 were examined in detail (FIGS. 16a and 16b). From the progress curve analyses, it was inferred that for each concentration of the inhibitors the initial and the steady state velocity decreased exponentially with time. At higher inhibitor concentration, steady state is reached rapidly with a decrease in steady state velocity (vs). […] Progress curves were analysed using equation 3a from which a series of Kobs values were obtained for each concentration of inhibitor.

Tail flick latency test = conditions: 15 mg/kg b. wt. vs Ibuprofen 50 mg/kg b. wt., 30 min and 60 min post injection
Description: Hot plate latency test was performed under red light on the metal surface of hot plate analgesia meter (IITC, Life science, CA). Animals were placed individually on the surface of hot plate maintained at a constant temperature 54±1° C. The anti-nociceptive response was latency recorded from the time when animal was placed on the heated surface until the behavior response show licking of hind paw to avoid thermal nociception. A maximum hot plate latency of 30 sec was used for each animal to prevent paw tissue damage. Base line nociceptive latency was obtained for each animal prior to any drug administration. Thereafter, groups of animals were treated with different concentration of different derivatives of benzothiophene and well known NSAIDs. […] Subsequent nociceptive response latency for each animal was determined at 30 and 60 min after drug administration. […] In continuation of tail flick latency assay, the anti-nociceptive effect of the compounds was monitored. Rats treated as described above were subjected to determination of thermal nociceptive pain. Rats were confined in restrainer and allowed to accommodate. The tail withdrawal test consisted of immersing the posterior 8-10 cm of the tail in hot water bath maintained at 54±1° C. Withdrawal latency for tail flicking was measured. A maximum tail flick latency of 20 sec was permitted to minimize tissue damage.

[5] = Mechanical hyperalgesia, Randall-Selitto, carrageenan induced; type: in vivo, rats; conditions: 15 mg/kg b wt., after 1 hrs, basal level in 5 hrs
Description: Mechanical hyperalgesia was measured as hind limb withdrawal threshold in response to a mechanical stimulus applied to hind paws of rat using Randall-selitto meter, Randall and Selitto, 1957. To determine the mechanical hyperalgesia, the force was applied with increased pressure at a constant rate until the animal withdrew its limb. The base line nociceptive threshold was measured before induction of hyperalgesia. Moreover, hyperalgesia was induced by carrageenan and then groups of animal were treated with compound 4, compound 6 and compound 8 (15 mg/kg body weight) and Ibuprofen (50 mg/kg body weight). Control group was treated with physiological saline. […] The anti-nociceptive efficacy of the compounds has been evaluated the efficacy with paw withdrawal threshold latency of animals.

[6] = Hot plate latency test (thermal hyperalgesia); type: in vivo, rats; conditions: for MPE index, hot plate latency assay: 15 mg/kg b. wt. i.p., 30 and 60 min; for Anti-nociceptive response, hot plate latency assay: known NSAIDs
Description: The animals were housed in an animal house facility of National Institute of Immunology, India, with controlled temperature (22±2° C.) under a 12/12 h light/dark cycle. They had free access to food and water ad libitum. All experiments were conducted according to the guidelines of the international association for the study of pain and approved by the institutional ethical committee for animal research. All in vivo experiments were carried out on inbred male […] rats ( 200-320 g body weight). Same age and equal body weight of animals were used according to experiments. No animals were used for more than one experiment. Most popular non-steroidal anti-inflammatory drugs which are widely use for treatment of chronic and inflammatory pain, such as Ibuprofen, Naproxen, Ketoprofen, Aspirin, Nimesulide, Indomethacine were purchased from Cayman Chemicals, USA and used to evaluate the efficacy of drugs in animal model. These drugs and different derivatives of Benzothiophene were dissolved in minimum volume of Dimethyl sulfoxide (DMSO) and further diluted in Phosphate buffer saline prior to use. […] Withdrawal latency for tail flicking was measured. […] NSAIDs is commonly evaluated by hot plate latency assay whereby animals are exposed to thermal stimulus (54 degree […] time for hind paw licking is measured as behavioural response for pain.

[7] = read-out: Inhibition of PfENR (IC50 μM)
[8] = Erythrocyte, growth inhibition, red blood cell stages of Plasmodium falciparum 3D7 (chloroquine sensitive)

| Structure (SMILES) | Mean Survival Days (Observed for 25 days) ([1]; Intraperitoneal) | Mean Survival Days (Observed for 25 days) ([1]; Per oral) | Mean Survival Days (Observed for 25 days) ([1]; Subcutaneous) | IC50 (purified PfENR [2]; [7]) | IC50 [3, 8] | Anti-nociceptive response, tail flick latency assay (Tail flick latency test) | Stage of parasite growth arrest [3] | Parasites observed to be dead [3] | other results |
| --- | --- | --- | --- | --- | --- | --- | --- | --- | --- |
| CCN(CC)CCCC(C)Nc1ccnc2cc(Cl)ccc12 (stereo not drawn) [Chloroquine, reference compound] | 20 ± 1.5 days | 17 ± 1.4 days | 21 ± 1.7 days |  |  |  |  |  | Relative efficacy in the route of administration study [1]: more effective via intravenous and subcutaneous routes compared to oral administration; Mean Survival Days (Observed for 25 days) ([1]; Intravenous): 25 ± 2.1 days |
| O=C(O)c1sc2ccccc2c1Br [Compound 1] |  |  |  | 1.68 ± 0.045 µM | 2.1 ± 0.4 µM |  |  |  |  |
| COc1ccc(CNC(=O)c2sc3ccccc3c2Br)cc1 [Compound 5, N-(4-methoxybezyl)-3-bromobenzo[b]thiophene-2-carboxamide] |  |  |  | 31.99 ± 0.23 µM | 5.93 ± 0.3 µM |  |  |  |  |
| O=C(NCc1ccc(C(F)(F)F)cc1)c1sc2ccccc2c1Br [Compound 7, N-(4-trifluorobenzyl)-3-bromobenzo[b]thiophene-2-carboxamide] | 21 ± 1.3 days | 11 ± 0.9 days | 15 ± 1.2 days |  |  | better anti-nociceptive response than the Ibuprofen | arrested at the trophozoite stage | ~90% | Relative efficacy in the route of administration study [1]: comparative activity to compound 6; Mean Survival Days (Observed for 25 days) ([1]; Intravenous): 24 ± 2.1 days; Ki (purified PfENR [4]): 0.0861 µM; Binding behaviour from progress curves (purified PfENR [4]; inhibitor 0-750 nM): slow tight binding behaviour; Isomerization rate constant (k5 * 10^−2) (s^−1) (purified PfENR [4]; purified PfENR, progress curves): 1.65 ± .023 10^−2 s^−1; koff (purified PfENR [4]; read-out: Dissociation rate constant (k6* 10^−3) (s^−1)): 0.0069 ± 3e-07 s⁻¹; IC50 (purified PfENR [2]; Inhibition of PfENR (IC50 μM)): 0.463 ± 0.1 µM; IC50 ([3]; Plasmodium falciparum, 3D7, Erythrocyte): 1.18 ± 0.2 µM |
| O=C(NCCc1ccccc1)c1sc2ccccc2c1Br [Compound 8, 3-bromo-N-(2-phenylethyl)-benzo[b]thiophene-2-carboxamide] |  |  |  | 54.98 ± 0.42 µM | 2.46 ± 0.7 µM | better anti-nociceptive response than the Ibuprofen |  |  | Mechanical hyperalgesia, paw withdrawal threshold [5]: significantly reversed the mechanical hyperalgesia; Analgesic activity compared with Ibuprofen, hot plate ([6]; compounds 15 mg/kg b. wt. vs Ibuprofen 50 mg/kg b. wt.): potent analgesic activity at much lower concentration than Ibuprofen |
| O=C(NCc1cccc2ccccc12)c1sc2ccccc2c1Br [Compound 9, 3-bromo-N-(naphthalen-1-ylmethyl)-benzo[b]thiophene-2-carboxamide] |  |  |  | 52.56 ± 0.33 µM | 2.45 ± 0.9 µM | better anti-nociceptive response than the Ibuprofen |  |  |  |
| C=CCN(Cc1ccc(F)cc1)C(=O)c1sc2ccccc2c1Br [Compound 10, 3-bromo-N-(4-fluorobenzyl)-N-(prop-2-en-1-yl)-benzo[b]thiophene-2-carboxamide] | 11 ± 0.8 days | 7 ± 1.2 days | 12 ± 1.6 days | 51.98 ± 0.43 µM | 2.93 ± 1.2 µM |  | arrested after 48 hours at the trophozoite stage | 40% | Mean Survival Days (Observed for 25 days) ([1]; Intravenous, 5 mg/kg): 15 days and 15 ± 0.7 days; MPE index, hot plate latency assay [6]: less latency in comparison to other derivatives |
| C=CCN(Cc1ccc(C(F)(F)F)cc1)C(=O)c1sc2ccccc2c1Br [Compound 11, 3-bromo-N-(prop-2-en-1-yl)-N-[4-(trifluoromethyl)benzyl]-1-benzo[b]thiophene-2-carboxamide] |  | 7 ± .6 days |  | 52.48 ± 0.22 µM | 1.3 ± 0.1 µM |  | arrested after 48 hours at the trophozoite stage | around 70% | Mean Survival Days (Observed for 25 days) ([1]; Intraperitoneal, 5 mg/kg): 10 ± 1.2 days; Mean Survival Days (Observed for 25 days) ([1]; Intraperitoneal, listed as compound 11, 5 mg/kg): 10 days; Mean Survival Days (Observed for 25 days) ([1]; Intravenous, 5 mg/kg): 16 ± 1.5 days; Mean Survival Days (Observed for 25 days) ([1]; Intravenous, listed as compound 11, 5 mg/kg): 16 days; Mean Survival Days (Observed for 25 days) ([1]; Subcutaneous, 5 mg/kg): 14 ± 1.2 days; Mean Survival Days (Observed for 25 days) ([1]; Subcutaneous, listed as compound 11, 5 mg/kg): 14 days; MPE index, hot plate latency assay [6]: less latency in comparison to other derivatives |
| CC(C)Cc1ccc(C(C)C(=O)O)cc1 (stereo not drawn) [Ibuprofen, reference compound] |  |  |  |  |  |  |  |  | Anti-nociceptive response, hot plate latency assay ([6]; 50 mg/kg b. wt., 60 minutes post administration): better anti-nociceptive effect compared to other NSAIDs; Anti-nociceptive response, hot plate latency assay ([6]; 30 minutes post administration, wistar rats): better anti-nociceptive drug as compared to other NSAIDs |
